# pIC50: −log10 of the molar value.
# Molecular target: S-adenosylmethionine synthase isoform type-2 (Homo sapiens, UniProt P31153)
# Assay: Enzymatic Activity Test
# Experimental: The specific steps were as follows: The compounds having the test starling concentration of 1 uM or 10 uM were diluted into 10 concentration points in a 3-fold gradient. 250 nL of the solutions of the compounds to be tested with 10 different concentrations were taken and added into a 384 well plate for later use. 20 ug/mL of MAT2a enzyme solution was prepared with Assay buffer (50 mM Tris, 50 mM KCl, 10 mM MgCl2, 0.05% polyoxyethylene lauryl ether, pH 8.0). 15 uL of the MAT2a enzyme solution at 20 ug/mL was add into the wells of the compounds to be tested at different concentrations; and 15 uL of Assay buffer was added into the negative control well. An incubation was carried out for 15 minutes after shaking for mixing well. A mixed substrate solution (comprising 400 uM ATP and 600 uM L-Methionine) was prepared with Assay buffer. 10 uL of the mixed substrate solution was added to the positive control well, the compound to be tested well, and the negative control well, respectively, and the reaction began, for a reaction time of 150 min. Then, 50 uL of the reaction stop solution (BIOMOL Green Reagent Enzo lifesciences, Cargo No. BML-AK111-1000) was added to stop the reaction, followed by being centrifuged at 1000 rpm for 60 s and then being incubated for 15 min. OD620 was read and data were processed.
# Sequence of S-adenosylmethionine synthase isoform type-2 (P31153 whole entry, canonical isoform): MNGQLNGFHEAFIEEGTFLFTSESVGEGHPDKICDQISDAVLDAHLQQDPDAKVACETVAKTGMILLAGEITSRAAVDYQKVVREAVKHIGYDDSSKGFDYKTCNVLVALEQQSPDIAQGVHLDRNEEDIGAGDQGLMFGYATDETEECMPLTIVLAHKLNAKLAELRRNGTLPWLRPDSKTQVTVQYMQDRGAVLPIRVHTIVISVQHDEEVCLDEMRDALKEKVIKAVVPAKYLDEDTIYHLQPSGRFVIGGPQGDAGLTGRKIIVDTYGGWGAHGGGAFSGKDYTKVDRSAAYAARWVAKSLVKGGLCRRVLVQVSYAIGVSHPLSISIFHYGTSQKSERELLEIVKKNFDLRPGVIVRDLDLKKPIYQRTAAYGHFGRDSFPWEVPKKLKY
smiles,measurement,value
"CNc1c(-c2ccsc2)c(=O)n(-c2ccccc2)c2nc(C(F)(F)F)ccc12 [US20240228491, Example 4]",pIC50,7.69

# — BindingDB's records for patent US20240228491 (Scinnohub Pharmaceutical, 2024)
